According to ChEMBL document CHEMBL5291721, “A preclinical secondary pharmacology resource illuminates target-adverse drug reaction associations of marketed drugs” (Nat Commun, 2023):

Legend:
[1] = biological target: T1, Muscarinic acetylcholine receptor M1 (Homo sapiens, UniProt P11229); type: functional, cell-based
T1 sequence (P11229 whole entry): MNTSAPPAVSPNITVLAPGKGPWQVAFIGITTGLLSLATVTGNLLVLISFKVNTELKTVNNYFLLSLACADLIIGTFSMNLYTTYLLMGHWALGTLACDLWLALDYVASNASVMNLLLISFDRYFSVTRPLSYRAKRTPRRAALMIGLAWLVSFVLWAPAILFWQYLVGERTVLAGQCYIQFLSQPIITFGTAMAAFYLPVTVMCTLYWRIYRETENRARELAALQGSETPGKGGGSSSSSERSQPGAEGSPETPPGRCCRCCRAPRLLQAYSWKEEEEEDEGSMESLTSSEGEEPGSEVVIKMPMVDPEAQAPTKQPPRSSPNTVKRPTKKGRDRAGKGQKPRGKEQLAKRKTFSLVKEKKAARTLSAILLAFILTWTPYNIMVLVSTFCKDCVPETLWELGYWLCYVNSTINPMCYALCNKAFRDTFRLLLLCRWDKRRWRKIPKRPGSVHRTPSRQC

[2] = biological target: Gamma-aminobutyric acid receptor subunit alpha-1 (Rattus norvegicus, UniProt P62813)
Gamma-aminobutyric acid receptor subunit alpha-1, sequence (P62813 whole entry): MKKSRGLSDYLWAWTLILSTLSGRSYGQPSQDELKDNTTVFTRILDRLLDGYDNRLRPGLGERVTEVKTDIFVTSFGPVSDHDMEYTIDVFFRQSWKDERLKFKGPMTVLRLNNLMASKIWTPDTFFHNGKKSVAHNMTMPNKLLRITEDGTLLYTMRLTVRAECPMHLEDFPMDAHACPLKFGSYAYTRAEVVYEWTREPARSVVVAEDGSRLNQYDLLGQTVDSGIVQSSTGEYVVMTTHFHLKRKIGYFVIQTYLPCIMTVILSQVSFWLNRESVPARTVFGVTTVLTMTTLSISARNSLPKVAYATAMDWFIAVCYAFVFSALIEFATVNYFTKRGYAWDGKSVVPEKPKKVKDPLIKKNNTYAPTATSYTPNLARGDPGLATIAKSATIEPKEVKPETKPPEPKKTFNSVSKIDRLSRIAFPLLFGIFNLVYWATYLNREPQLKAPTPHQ
Note: assay procedure not described here.

Compound | AC50 [1] [µM] | AC50 [2] [µM]
CC(=O)NCCCCCC(=O)O [ACEXAMIC ACID] | > 30 | –
CC(=O)NO [ACETOHYDROXAMIC ACID] | > 30 | > 30
CN[C@@H]1[C@H](O[C@H]2[C@H](O[C@H]3[C@H](O)[C@@H](O)[C@H](NC(=N)N)[C@@H](O)[C@@H]3NC(=N)N)O[C@@H](C)[C@]2(O)CO)O[C@@H](CO)[C@H](O)[C@H]1O [DIHYDROSTREPTOMYCIN] | – | > 30
CC(C)[C@@H]1CC[C@@H](C)C[C@H]1O [LEVOMENTHOL] | > 30 | –
C[C@H]1O[C@@H](O[C@H]2CC[C@@]3(C)[C@H](CC[C@@H]4[C@@H]3C[C@@H](O)[C@]3(C)[C@@H](C5=CC(=O)OC5)CC[C@]43O)C2)C[C@H](O)[C@@H]1O[C@H]1C[C@H](O)[C@H](O[C@H]2C[C@H](O)[C@H](O[C@@H]3O[C@H](CO)[C@@H](O)[C@H](O)[C@H]3O)[C@@H](C)O2)[C@@H](C)O1 [DESLANOSIDE] | > 30 | –
Cc1ccsc1C(=CCCN1CCC[C@@H](C(=O)O)C1)c1sccc1C [TIAGABINE] | > 30 | –
O=C(NNCS(=O)(=O)O)c1ccncc1 [METHANIAZIDE] | > 30 | > 30
C=N[C@@H](C(=O)N[C@@H]1C(=O)N2[C@@H]1SC(C)(C)[C@@H]2C(=O)O)c1ccccc1 [METAMPICILLIN] | > 30 | > 30
Cc1cc(=O)[nH]c(=S)[nH]1 [METHYLTHIOURACIL] | > 30 | > 30
CC[C@]12CCCN3CCc4c(n(c5ccccc45)[C@@](O)(C(=O)OC)C1)[C@@H]32 [VINCAMINE] | > 30 | > 30
C[N+]1(C)CCCC(OC(=O)C(O)(c2ccccc2)c2ccccc2)C1 (configuration not stated) [MEPENZOLATE] | > 30 | –
CCCCC(CC)CN1CN(CC(CC)CCCC)CC(C)(N)C1 (configuration not stated) [HEXETIDINE] | > 30 | > 30
C[C@]12C=CC(=O)C=C1CC[C@H]1[C@@H]3C[C@@H](O)[C@](O)(C(=O)CO)[C@@]3(C)C[C@H](O)[C@@]12F [TRIAMCINOLONE] | – | > 30
C=CC(=O)Nc1cccc(Oc2nc(Nc3ccc(N4CCN(C)CC4)cc3)nc3ccsc23)c1 [OLMUTINIB] | > 30 | > 30
COc1c2occc2c(OC)c2c(=O)cc(C)oc12 [KHELLIN] | > 30 | > 30
C=C(C)CNc1ccc(C(C)C(=O)O)cc1 (configuration not stated) [ALMINOPROFEN] | > 30 | –
O=C(O)P(=O)(O)O [FOSCARNET] | – | > 30
C[N+](C)(CCCCCC[N+](C)(C)C1c2ccccc2-c2ccccc21)C1c2ccccc2-c2ccccc21 [HEXAFLUORENIUM] | > 30 | > 30
